Test results: US10781204B2, “TYK2 inhibitors and uses thereof” (Nimbus Lakshmi, Inc., priority 2015, dated 2020)

Legend:
[1] = biological target: TYK2 (Homo sapiens (Human), UniProt P29597); assay: Tyk2 radioactive kinase assay; type: biochemical; settings: ATP 10 μM
How it was run: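 Recombinant human TYK2 (Invitrogen) was mixed with 20 μM peptide substrate in a buffer of 20 mM Hepes pH 7.5, 10 mM MgCl2, 1 mM EGTA, 0.02% Brij35, 0.02 mg/mL BSA, 0.1 mM […], 2 mM DTT and 1% DMSO, and compounds in DMSO were added. Adding ^33P-ATP (10 μM ATP) started the reaction, which ran 120 min at room temperature. Mixtures were then spotted onto P81 ion-exchange paper, washed thoroughly in 0.75% phosphoric acid, and counted for radioactivity.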

[2] = test system: Tyk2-pSTAT4 (IL-12 induced pSTAT4); assay: IL-12 induced pSTAT4 in human PBMC; type: cell-based; settings: Homo sapiens, PBMC, 0.5 h, 1.7 ng/mL IL-12, 30 minutes
How it was run: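 pSTAT4 and total STAT4 quantified by MSD in cell lysates after 30 minutes of 1.7 ng/mL IL-12 stimulation. Beforehand, compound (0.1% DMSO final) sat 1 hr at 37 C on 200,000 thawed buffy-coat PBMC per well in serum-containing medium.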

[3] = test system: JAK2-pSTAT5 (GM-CSF induced pSTAT5); assay: GM-CSF induced pSTAT5 in human PBMC; type: cell-based; settings: Homo sapiens, PBMC, 20 min, 5 ng/mL GM-CSF
How it was run: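 Thawed human PBMC, 200,000 per well in serum-containing medium, were preincubated 1 hr at 37 C with compound in 0.1% DMSO. GM-CSF at 5 ng/mL final was added for 20 minutes, then pSTAT5 and total STAT5 in lysates were measured by MSD immunoassay.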

[4] = biological target: JAK2 (Homo sapiens (Human), UniProt O60674); assay: JAK2 radioactive kinase assay; type: biochemical; settings: ATP 10 μM
JAK2, sequence (O60674 whole entry): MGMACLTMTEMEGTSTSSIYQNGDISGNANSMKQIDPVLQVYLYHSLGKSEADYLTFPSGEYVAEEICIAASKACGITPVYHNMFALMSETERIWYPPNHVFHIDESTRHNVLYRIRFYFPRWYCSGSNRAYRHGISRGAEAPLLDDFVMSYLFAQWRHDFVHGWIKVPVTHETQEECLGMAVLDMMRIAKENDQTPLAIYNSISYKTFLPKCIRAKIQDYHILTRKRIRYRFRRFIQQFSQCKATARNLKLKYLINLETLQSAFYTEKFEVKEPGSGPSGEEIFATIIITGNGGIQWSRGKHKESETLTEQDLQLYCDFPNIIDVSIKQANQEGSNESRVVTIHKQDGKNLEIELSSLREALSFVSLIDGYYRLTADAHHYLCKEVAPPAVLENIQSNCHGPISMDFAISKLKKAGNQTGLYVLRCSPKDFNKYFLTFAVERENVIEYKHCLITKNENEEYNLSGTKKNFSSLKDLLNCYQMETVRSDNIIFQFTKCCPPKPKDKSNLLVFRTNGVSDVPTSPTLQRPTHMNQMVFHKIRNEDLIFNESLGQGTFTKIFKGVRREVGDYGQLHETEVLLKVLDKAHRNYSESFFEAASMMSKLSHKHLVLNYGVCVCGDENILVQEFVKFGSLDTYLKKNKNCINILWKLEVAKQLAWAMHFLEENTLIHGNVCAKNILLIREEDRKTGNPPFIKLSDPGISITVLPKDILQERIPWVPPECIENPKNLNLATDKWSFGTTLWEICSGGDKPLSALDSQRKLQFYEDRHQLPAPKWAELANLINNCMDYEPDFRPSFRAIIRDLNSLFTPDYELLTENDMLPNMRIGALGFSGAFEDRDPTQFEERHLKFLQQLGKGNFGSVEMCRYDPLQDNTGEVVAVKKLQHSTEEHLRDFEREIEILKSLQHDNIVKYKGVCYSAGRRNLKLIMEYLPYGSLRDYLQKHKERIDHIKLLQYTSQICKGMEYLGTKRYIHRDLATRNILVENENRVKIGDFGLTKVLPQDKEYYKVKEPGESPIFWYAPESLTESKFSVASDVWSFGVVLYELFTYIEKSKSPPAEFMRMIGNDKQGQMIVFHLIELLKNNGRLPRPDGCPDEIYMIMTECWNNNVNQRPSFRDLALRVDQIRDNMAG
How it was run: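 Radiometric assay in Hepes pH 7.5, MgCl2, EGTA, Brij35, BSA, DTT, 1% DMSO, with 10 μM [33P]ATP, 120 min at room temp; P81 paper capture and counting. […]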

TYK2, sequence (P29597 whole entry): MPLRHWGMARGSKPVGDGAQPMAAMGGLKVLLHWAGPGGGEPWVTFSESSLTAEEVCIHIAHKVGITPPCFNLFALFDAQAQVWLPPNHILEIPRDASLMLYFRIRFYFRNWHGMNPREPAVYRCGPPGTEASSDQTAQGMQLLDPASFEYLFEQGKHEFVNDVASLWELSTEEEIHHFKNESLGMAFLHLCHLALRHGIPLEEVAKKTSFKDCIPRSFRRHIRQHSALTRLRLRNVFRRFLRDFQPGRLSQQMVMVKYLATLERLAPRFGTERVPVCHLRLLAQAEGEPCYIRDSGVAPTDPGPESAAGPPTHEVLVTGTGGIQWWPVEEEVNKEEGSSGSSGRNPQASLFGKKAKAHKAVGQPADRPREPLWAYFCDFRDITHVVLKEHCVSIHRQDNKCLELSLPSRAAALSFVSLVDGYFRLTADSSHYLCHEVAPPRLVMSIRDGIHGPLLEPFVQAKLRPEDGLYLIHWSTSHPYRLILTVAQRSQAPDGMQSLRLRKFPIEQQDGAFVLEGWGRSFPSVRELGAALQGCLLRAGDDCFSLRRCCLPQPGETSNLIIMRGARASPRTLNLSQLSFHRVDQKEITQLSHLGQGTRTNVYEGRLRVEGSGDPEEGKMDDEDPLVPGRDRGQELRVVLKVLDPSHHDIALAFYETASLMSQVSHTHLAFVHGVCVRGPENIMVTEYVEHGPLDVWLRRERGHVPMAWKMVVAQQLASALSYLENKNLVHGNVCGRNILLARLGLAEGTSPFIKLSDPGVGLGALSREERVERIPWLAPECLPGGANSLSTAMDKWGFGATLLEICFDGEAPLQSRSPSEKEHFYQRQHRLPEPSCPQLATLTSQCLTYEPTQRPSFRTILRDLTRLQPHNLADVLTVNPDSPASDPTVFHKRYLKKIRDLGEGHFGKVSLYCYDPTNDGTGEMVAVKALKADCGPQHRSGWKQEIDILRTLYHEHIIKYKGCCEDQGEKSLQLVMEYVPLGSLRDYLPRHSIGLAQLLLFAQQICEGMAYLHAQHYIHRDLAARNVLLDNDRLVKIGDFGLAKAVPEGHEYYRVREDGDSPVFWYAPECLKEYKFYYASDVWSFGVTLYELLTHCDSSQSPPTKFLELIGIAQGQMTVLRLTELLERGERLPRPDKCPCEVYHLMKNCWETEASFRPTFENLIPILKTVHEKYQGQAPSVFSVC

Row | Ki [1] | EC50 [2] | EC50 [3] | Ki [4] | SMILES
1 | 0.1 to 10 nM | 100 to 2000 nM | > 2000 nM | 0.1 to 10 nM | N#Cc1cccc(F)c1-c1cc(-n2ccc(N3CCCC(C(=O)N4CCCC4)C3)n2)c2c(n1)CNC2=O (stereo not drawn) [I-152, 3-fluoro-2-(5-oxo-4-(3-(3-(pyrrolidine-1-carbonyl)piperidin-1-yl)-1H-pyrazol-1-yl)-6,7-dihydro-5H-pyrrolo[3,4-b]pyridin-2-yl)benzonitrile]
2 | 0.1 to 10 nM | 100 to 2000 nM | > 2000 nM | 10 to 100 nM | N#Cc1cccc(F)c1-c1cc(-n2ccc(N3CCC[C@H](N4CCOCC4)C3)n2)c2c(n1)CNC2=O [I-157, (S)-3-fluoro-2-(4-(3-(3-morpholinopiperidin-1-yl)-1H-pyrazol-1-yl)-5-oxo-6,7-dihydro-5H-pyrrolo[3,4-b]pyridin-2-yl)benzonitrile]
3 | 0.1 to 10 nM | 100 to 2000 nM | > 2000 nM | 10 to 100 nM | N#Cc1cccc(F)c1-c1cc(-n2ccc(N3CCC[C@@H](N4CCOCC4)C3)n2)c2c(n1)CNC2=O [I-158, (R)-3-fluoro-2-(4-(3-(3-morpholinopiperidin-1-yl)-1H-pyrazol-1-yl)-5-oxo-6,7-dihydro-5H-pyrrolo[3,4-b]pyridin-2-yl)benzonitrile]
4 | 0.1 to 10 nM | 100 to 2000 nM | > 2000 nM | 10 to 100 nM | CCNC(=O)C1CCCN(c2ccn(-c3cc(-c4c(F)cccc4C#N)nc4c3C(=O)NC4)n2)C1 (stereo not drawn) [I-159, 1-(1-(2-(2-cyano-6-fluorophenyl)-5-oxo-6,7-dihydro-5H-pyrrolo[3,4-b]pyridin-4-yl)-1H-pyrazol-3-yl)-N-ethylpiperidine-3-carboxamide]
5 | 0.1 to 10 nM | 100 to 2000 nM | 100 to 2000 nM | 0.1 to 10 nM | N#Cc1cccc(F)c1-c1cc(-n2ccc(N3CCC[C@H](C(=O)N4CCCC4)C3)n2)c2c(n1)CNC2=O [I-168, (S)-3-fluoro-2-(5-oxo-4-(3-(3-(pyrrolidine-1-carbonyl)piperidin-1-yl)-1H-pyrazol-1-yl)-6,7-dihydro-5H-pyrrolo[3,4-b]pyridin-2-yl)benzonitrile]
6 | 0.1 to 10 nM | 100 to 2000 nM | > 2000 nM | 10 to 100 nM | CCNC(=O)[C@H]1CCCN(c2ccn(-c3cc(-c4c(F)cccc4C#N)nc4c3C(=O)NC4)n2)C1 [I-171, (S)-1-(1-(2-(2-cyano-6-fluorophenyl)-5-oxo-6,7-dihydro-5H-pyrrolo[3,4-b]pyridin-4-yl)-1H-pyrazol-3-yl)-N-ethylpiperidine-3-carboxamide]
7 | 0.1 to 10 nM | 100 to 2000 nM | > 2000 nM | 10 to 100 nM | CCNC(=O)[C@@H]1CCCN(c2ccn(-c3cc(-c4c(F)cccc4C#N)nc4c3C(=O)NC4)n2)C1 [I-172, (R)-1-(1-(2-(2-cyano-6-fluorophenyl)-5-oxo-6,7-dihydro-5H-pyrrolo[3,4-b]pyridin-4-yl)-1H-pyrazol-3-yl)-N-ethylpiperidine-3-carboxamide]

Second part, the molecule before the results:

Row | SMILES | Ki [1] | EC50 [2] | EC50 [3] | Ki [4]
8 | [2H]C1([2H])C[C@H](O)C([2H])([2H])N1c1ccn(-c2cc(-c3c(F)cccc3C#N)nc3c2C(=O)NC3)n1 [I-142, (S)-3-fluoro-2-(4-(3-(3-hydroxypyrrolidin-1-yl-2,2,5,5-d4)-1H-pyrazol-1-yl)-5-oxo-6,7-dihydro-5H-pyrrolo[3,4-b]pyridin-2-yl)benzonitrile] | 0.009 to 0.1 nM | 30 to 100 nM | 100 to 2000 nM | 0.1 to 10 nM
9 | CN1CCN(C2CCCN(c3ccn(-c4cc(-c5c(F)cccc5C#N)nc5c4C(=O)NC5)n3)C2)CC1 (stereo not drawn) [I-147, 3-fluoro-2-(4-(3-(3-(4-methylpiperazin-1-yl)piperidin-1-yl)-1H-pyrazol-1-yl)-5-oxo-6,7-dihydro-5H-pyrrolo[3,4-b]pyridin-2-yl)benzonitrile] | 0.1 to 10 nM | 100 to 2000 nM | 100 to 2000 nM | 10 to 100 nM
10 | N#Cc1cccc(F)c1-c1cc(-n2ccc(N3CC[C@H](O)C3=O)n2)c2c(n1)CNC2=O [I-148, (S)-3-fluoro-2-(4-(3-(3-hydroxy-2-oxopyrrolidin-1-yl)-1H-pyrazol-1-yl)-5-oxo-6,7-dihydro-5H-pyrrolo[3,4-b]pyridin-2-yl)benzonitrile] | 10 to 100 nM | > 2000 nM | > 2000 nM | ≥ 1000 nM
11 | N#Cc1cccc(F)c1-c1cc(-n2ccc(N3CCCC(N4CCOCC4)C3)n2)c2c(n1)CNC2=O (stereo not drawn) [I-149, 3-fluoro-2-(4-(3-(3-morpholinopiperidin-1-yl)-1H-pyrazol-1-yl)-5-oxo-6,7-dihydro-5H-pyrrolo[3,4-b]pyridin-2-yl)benzonitrile] | 0.009 to 0.1 nM | 100 to 2000 nM | 100 to 2000 nM | 0.1 to 10 nM
12 | C[C@H]1[C@H](O)CCN1c1ccn(-c2cc(-c3c(F)cccc3C#N)nc3c2C(=O)NC3)n1 [I-150, 3-fluoro-2-(4-(3-((2S,3R)-3-hydroxy-2-methylpyrrolidin-1-yl)-1H-pyrazol-1-yl)-5-oxo-6,7-dihydro-5H-pyrrolo[3,4-b]pyridin-2-yl)benzonitrile] | 0.009 to 0.1 nM | 30 to 100 nM | > 2000 nM | 0.1 to 10 nM
13 | CC(C)c1ccn(-c2cc(-c3c(F)cccc3C#N)nc3c2C(=O)NC3)n1 [I-151, 3-fluoro-2-(4-(3-isopropyl-1H-pyrazol-1-yl)-5-oxo-6,7-dihydro-5H-pyrrolo[3,4-b]pyridin-2-yl)benzonitrile] | 0.1 to 10 nM | 100 to 2000 nM | > 2000 nM | 100 to 1000 nM
14 | CN1CCN([C@H]2CCCN(c3ccn(-c4cc(-c5c(F)cccc5C#N)nc5c4C(=O)NC5)n3)C2)CC1 [I-155, (S)-3-fluoro-2-(4-(3-(3-(4-methylpiperazin-1-yl)piperidin-1-yl)-1H-pyrazol-1-yl)-5-oxo-6,7-dihydro-5H-pyrrolo[3,4-b]pyridin-2-yl)benzonitrile] | 0.1 to 10 nM | 100 to 2000 nM | > 2000 nM | 10 to 100 nM
15 | CN1CCN([C@@H]2CCCN(c3ccn(-c4cc(-c5c(F)cccc5C#N)nc5c4C(=O)NC5)n3)C2)CC1 [I-156, (R)-3-fluoro-2-(4-(3-(3-(4-methylpiperazin-1-yl)piperidin-1-yl)-1H-pyrazol-1-yl)-5-oxo-6,7-dihydro-5H-pyrrolo[3,4-b]pyridin-2-yl)benzonitrile] | 0.1 to 10 nM | 100 to 2000 nM | 100 to 2000 nM | 10 to 100 nM
16 | CC1O[C@H]2CN(c3ccn(-c4cc(-c5c(F)cccc5C#N)nc5c4C(=O)NC5)n3)C[C@H]2O1 (stereo partly drawn) [I-161, 3-fluoro-2-(4-(3-((3aR,6aS)-2-methyltetrahydro-5H-[1,3]dioxolo-[4,5-c]pyrrol-5-yl)-1H-pyrazol-1-yl)-5-oxo-6,7-dihydro-5H-pyrrolo[3,4-b]pyridin-2-yl)benzonitrile] | 0.1 to 10 nM | 100 to 2000 nM | 100 to 2000 nM | 10 to 100 nM
17 | C[C@]1(O)CN(c2ccn(-c3cc(-c4c(F)cccc4C#N)nc4c3C(=O)NC4)n2)CC[C@H]1O [I-162, 2-(4-(3-((3S,4R)-3,4-dihydroxy-3-methylpiperidin-1-yl)-1H-pyrazol-1-yl)-5-oxo-6,7-dihydro-5H-pyrrolo[3,4-b]pyridin-2-yl)-3-fluorobenzonitrile] | 0.009 to 0.1 nM | 100 to 2000 nM | 100 to 2000 nM | 0.1 to 10 nM
18 | N#Cc1cccc(F)c1-c1cc(-n2ccc(N3CCOC[C@@H]3CO)n2)c2c(n1)CNC2=O [I-163, (S)-3-fluoro-2-(4-(3-(3-(hydroxymethyl)morpholino)-1H-pyrazol-1-yl)-5-oxo-6,7-dihydro-5H-pyrrolo[3,4-b]pyridin-2-yl)benzonitrile] | 0.1 to 10 nM | 100 to 2000 nM | 100 to 2000 nM | 0.1 to 10 nM
19 | N#Cc1cccc(F)c1-c1cc(-n2ccc(N3CC[C@]4(CCNC4=O)C3)n2)c2c(n1)CNC2=O [I-165, (R)-3-fluoro-2-(5-oxo-4-(3-(6-oxo-2,7-diazaspiro[4.4]nonan-2-yl)-1H-pyrazol-1-yl)-6,7-dihydro-5H-pyrrolo[3,4-b]pyridin-2-yl)benzonitrile] | 0.1 to 10 nM | 100 to 2000 nM | 100 to 2000 nM | 0.1 to 10 nM
20 | N#Cc1cccc(F)c1-c1cc(-n2ccc(N3CC[C@@]4(CCNC4=O)C3)n2)c2c(n1)CNC2=O [I-166, (S)-3-fluoro-2-(5-oxo-4-(3-(6-oxo-2,7-diazaspiro[4.4]nonan-2-yl)-1H-pyrazol-1-yl)-6,7-dihydro-5H-pyrrolo[3,4-b]pyridin-2-yl)benzonitrile] | 0.009 to 0.1 nM | 100 to 2000 nM | 100 to 2000 nM | 0.1 to 10 nM
21 | [2H]C1([2H])CC(O)(C([2H])([2H])[2H])C([2H])([2H])N1c1ccn(-c2cc(-c3c(F)cccc3C#N)nc3c2C(=O)NC3)n1 (stereo not drawn) [I-170, 3-fluoro-2-(4-(3-(3-hydroxy-3-(methyl-d3)pyrrolidin-1-yl-2,2,5,5-d4)-1H-pyrazol-1-yl)-5-oxo-6,7-dihydro-5H-pyrrolo[3,4-b]pyridin-2-yl)benzonitrile] | 0.1 to 10 nM | 30 to 100 nM | > 2000 nM | 0.1 to 10 nM
